# According to patent US8217022B2, “Analogues of 1,3-bis(4-nitrophenyl)triazenes, their pharmaceutically acceptable salts and N-acyl derivatives for tumour treatment” (Rudjer Boskovic Institute, priority 2009, dated 2012):
# Read-outs that look alike come from different tables or passages of the source.
# Assays:
# [1] = tested on: human cervical carcinoma HeLa cells; experiment: Cytotoxicity by spectrophotometric MTT method on HeLa cells; assay type: cell-based; details: for IC50: MTT
# Method: (§1) The human cervical carcinoma HeLa cells were used as a model for testing the cytotoxicity of new compounds. Said cells grow as single-layer culture in nutrient Dulbecco's modified Eagle's medium (DMEM, Gibco Life Technologies, Grand Island, USA) with 10% of fetal bovine serum (Gibco) and antibiotics (penicillin 100 U, streptomicine 0.1 mg, Sigma Chem. Co., St. Louis, USA). They were grown in thermostat at 37° C. with 5% CO2 in a humidified atmosphere in plastic cell culture flasks (BD Falcon, Germany).
# The compounds were dissolved in dimethyl sulfoxide (Merck, Darmstadt, Germany) in concentrations of 20-120 mM (depending on the compound) and stored in aliquots at −20° C. as stock solutions. The stock solutions were diluted to the appropriate concentrations just before the experiments.
# (§2) The cytotoxicity of new compounds was determined by spectrophotometric MTT method (Michisch et al., Urol Res 18(990)131). It is a colorimetric method based on the ability of living cells to reduce the yellow tetrazolium salt 3-(4,5-dimethylthiazol-2-yl)-2,5-diphenyltetrazolium bromide) (MTT; Merck) to violet formazane crystals using mitochondrial dehydrogenase and cytochrome b and c. The crystals were dissolved in dimethyl sulfoxide (DMSO), followed by spectrophotometric measurement of their absorbance at 545 nm.
# (§3) Cells were seeded in 96-well microtitration plates (BD Falcon) (2.5×10^3/180 μl), and incubated overnight at temperature of 37° C. to allow the cells to attach to the growth medium. Next day the compounds were added to the growth medium in a wide range of concentrations, from 0.05 to 100 μM (each concentration in quadruplicate). After 72 hours, the samples were coloured with the MTT dye and left for 3 hours in the thermostat. Formed crystals were dissolved in dimethyl sulfoxide and the absorbance of each sample was measured at 545 nm. The survival of cells was calculated according to the formula: […]
# The experiments were repeated 2-3 times. […] IC50 values were read from the curve. IC50 is the concentration of a compound that reduces the survival of treated cells to 50%.
# The cytotoxicity of the new compounds was determined on human cervical carcinoma HeLa cells by the spectrophotometric MTT method. It is expressed as IC50 value, i.e. as the concentration of a compound that reduces cell survival to 50%.
# [2] = tested on: human embryonic kidney HEK 293 cells; experiment: Cytotoxicity by MTT method on HEK 293 cells; assay type: cell-based; details: HEK 293, MTT; Table 2
# [3] = tested on: CA3 cells resistant to cisplatin and cross-resistant to vincristine, methotrexate and mitomycin C; experiment: Cytotoxicity by MTT method on CA3 resistant sub-line; assay type: cell-based; details: Table 3
# [4] = tested on: rhabdomiosarcoma RD cells; experiment: Cytotoxicity by MTT method on RD cells; assay type: cell-based; details: Table 2
# glioblastoma A1235 cells = experiment: Cytotoxicity by MTT method on A1235 cells; assay type: cell-based; details: Table 2
# [5] = tested on: human ovarian adenocarcinoma OVCAR cells; experiment: Cytotoxicity by MTT method on OVCAR cells; assay type: cell-based; details: Table 2
# [6] = tested on: HeLa CK cells resistant to cisplatin and cross-resistant to vincristine and methotrexate; experiment: Cytotoxicity by MTT method on HeLa CK resistant sub-line; assay type: cell-based, human; details: Table 3
# Method: as §2
# as §3, with “After 72 hours, the samples were coloured with the MTT dye and left for 3 hours in the thermostat.” left out
# (§4) The experiments were repeated 2-3 times. […] IC50 values were read from the curve. […]
# It was tested on parental cervical carcinoma HeLa cells and their sub-line HeLa CK cells resistant to cisplatin and cross-resistant to vincristine and methotrexate (Osmak and Eljuga, Res Exp Med 193(1993) 389). […] Cytotoxicity was determined by spectrophotometric MTT method and expressed as IC50.
# [7] = tested on: normal human cells, keratinocytes; experiment: Cytotoxicity on keratinocytes, survival by crystal violet dye; assay type: cell-based; details: Table 2
# Method: as §1
# The compounds were dissolved in dimethyl sulfoxide (Merck, Darmstadt, Germany) in concentrations of 20-120 mM (depending on the compound) and stored in aliquots at −20° C. as stock solutions. […]
# Cells were seeded in 96-well microtitration plates (BD Falcon) (2.5×10^3/180 μl), and incubated overnight at temperature of 37° C. to allow the cells to attach to the growth medium. […] Formed crystals were dissolved in dimethyl sulfoxide and the absorbance of each sample was measured at 545 nm. The survival of cells was calculated according to the formula: […]
# as §4
# The cytotoxicity was determined by spectrophotometric MTT method (except for keratinocytes, which have low metabolic activity, so their survival was determined by addition of crystal violet dye) and expressed as IC50.
# [8] = tested on: laryngeal carcinoma HEp-2 cells; experiment: Cytotoxicity by MTT method on HEp-2 cells; assay type: cell-based
# mammalian cells = details: from publication, read-out: cytotoxicity IC50; cited from earlier work
# [9] = HeLa cells, 72 hours, Table 1, read-out: Cytotoxicity (IC50 μM)
smiles,measurement,setting,value
"O=[N+]([O-])c1ccc(N=NNc2ccc([N+](=O)[O-])cc2)cc1 [1,3-bis(4-nitrophenyl)triazene]",biological activity,[1]; tested during the testing of the compounds of the invention,did not show any biological activity
O=[N+]([O-])c1ccc(N=NNc2ccc([N+](=O)[O-])cc2Br)c(Br)c1 [VM-94c],IC50,[2],7.9 µM
same,IC50,[3],7.2 µM
same,IC50,[4],5.1 µM
same,IC50,glioblastoma A1235 cells,5.45 µM
same,IC50,[5],3.4 µM
same,IC50,[6],3.9 µM
same,IC50,[7],9.45 µM
same,IC50,"[8]; HEp2 parental cells, MTT, Table 3",5.5 µM
same,IC50,"[8]; HEp-2, MTT, Table 2",5.5 µM
same,IC50,"[1]; HeLa cells, 72 hours, Table 1, listed as VM 94c, read-out: Cytotoxicity (IC50 μM)",3.65 µM
same,IC50,"[1]; HeLa parental cells, Table 3, read-out: IC50",3.4 µM
same,IC50,"[1]; HeLa, Table 2, read-out: IC50",3.65 µM
O=[N+]([O-])c1ccc(N=NNc2ccc([N+](=O)[O-])cc2Br)c(Br)c1 [VM-97],IC50,[1]; [9],0.45 µM
O=[N+]([O-])c1ccc(N=NNc2ccc([N+](=O)[O-])cc2Cl)c(Cl)c1 [VM-102],IC50,[1]; [9],2.6 µM
"N=C(N)c1ccc(N=NNc2ccc(C(=N)N)cc2)cc1 [berenil, Berenil]",IC50,mammalian cells,> 100 µM
